Activity calls are given as the source filed them. How the calls were made is not given here.

In the assay the target is X-box-binding protein 1 (Homo sapiens) (UniProt P17861). The experiment in a line: XBP1 reporter suppression in cells – counter-screen, dose response (AID 504313).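 Further: CHO cells carrying an XBP1 reporter stimulated with tunicamycin; potency is for inhibition of the tunicamycin-induced reporter signal.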 The conditions noted are these: XBP1 reporter cell assay, percent of control. Background: Counterscreens check selectivity or assay interference.
Take `Cc1cc(/C=c2/sc3nc4ccccc4n3c2=O)c(C)n1-c1ccccn1`: the IC50 – broadly, the concentration that inhibits the measured activity by half – is below 0.16 µM.
To `COc1ccc(/C=C2\SC(=S)N(CCCC(=O)Nc3ccc(O)cc3)C2=O)cc1` belongs below 0.16 µM.
With `CCOc1ccc(C(=O)C(CCC(CN(C)C)C(=O)c2ccc(OCC)cc2)CN(C)C)cc1` (centres undefined), the IC50 result is “inactive”.
To `O=C(CNC1CCCCCC1)Nc1ccccc1N1CCCCC1` belongs “inactive”; to `O=S(=O)(Nc1cc(Sc2cccc3cccnc23)c(O)c2ccccc12)c1ccc(F)cc1`, 4.63 µM; to `Nc1ccc2oc(-c3cc(Br)ccc3Cl)nc2c1`, 0.39 µM.
Turning to `CC1=NNC(=O)/C1=C\c1cn(-c2ccccc2)nc1-c1ccc(F)cc1`, the IC50 result is “inactive”.
Under `NC(=S)n1[nH]c(-c2ccc([N+](=O)[O-])cc2)c(N=Nc2ccc(Cl)cc2)c1=O` stands “inactive”; under `CCCCCCn1c(-c2ccco2)nc2oc3cc(OC)ccc3c(=O)c2c1=O`, > 10 µM (inactive).
Under `CCSc1nc2ccccc2n1C(=O)/C=C\c1ccc(OC)c(OC)c1` stands 4.66 µM; under `O=S1(=O)C=C(Sc2nc3ccccc3s2)c2ccccc21`, 2.74 µM.
Under `O=C1c2ccccc2C(=O)c2c1oc(C(F)(F)F)c2C(=O)c1ccccc1` stands “inactive”; under `COc1ccc(/C=C/C(=O)NC(=S)NNC(=O)c2cccnc2)cc1`, > 10 µM (inactive).
With `O=C(/C=C/Sc1ncn[nH]1)c1ccc(Cl)cc1`, the IC50 result is “inactive”.
On to `COc1cc(C)nc(N2CCCC(C(=O)Nc3cccc(Cl)c3C)C2)n1` (centres undefined), for which the IC50 was > 10 µM (inactive).
Consider `CCCCCCCCCCCCCCCC[n+]1cccc(C(=O)N(CC)CC)c1`, for which the IC50 entry is “inactive”.
On to `CCOC(=O)c1c2ccc(OCC(=O)N/N=C/c3ccc(C)cc3)cc2n2ccccc12`, for which the IC50 entry is “inactive”.
In the case of `C[C@H](NC(=O)c1nc[nH]c1C(=O)N[C@@H](Cc1ccccc1)C(=O)OC(C)(C)C)C(=O)OC(C)(C)C`, the IC50 entry was “inactive”.
To `Nc1ccc(N2CCCCCC2)cc1` belongs > 10 µM (inactive).
Under `S=C(NCCc1ccc(Cl)cc1)Nc1ccc(Cl)cc1Cl` stands > 10 µM (inactive).
Under `O=C(Nc1ccc(Oc2ccccc2)cc1)C1CCN(c2c3c(nc4ncnn24)CCC3)CC1` stands > 10 µM (inactive).
As for `CCOc1cc(/C=C\[N+](=O)[O-])ccc1OCC(=O)Nc1ccccc1C`, the IC50 is 4.59 µM.
`FC(F)(F)c1cccc(NC(=S)Nc2ccc(Cl)cc2Cl)c1`: the IC50 is > 10 µM (inactive).
In the case of `Cn1c2ccccc2c(=O)c2c(=O)n(C3CCCCCC3)c(C3CCCCC3)nc21`, the IC50 is > 10 µM (inactive).
As for `C=CCn1c(O)c(C(CC)=Nc2ccc(N(CC)CC)cc2)c(=O)[nH]c1=O`, the IC50 entry is “inactive”.
`CC1CCN(S(=O)(=O)c2ccc3c(c2)C(=NO)c2cc(S(=O)(=O)N4CCC(C)CC4)ccc2-3)CC1`: the IC50 was 1.27 µM.
As to `CCOC(=O)c1cc([N+](=O)[O-])c([N+](=O)[O-])cc1NC(C)=O`, the IC50 entry was “inactive”.
Under `CCN(CC)CCn1c(SCC(=O)Nc2ccc(F)cc2)nc2c(sc3ccccc32)c1=O` stands > 10 µM (inactive).
To `CN(C)c1ccc(/C=C2\SC(=O)N(CCc3nnc(N)s3)C2=O)cc1` belongs “inactive”; to `Cc1cc(C)cc(OC2CCCCC2NS(=O)(=O)c2ccccc2)c1` (centres undefined), > 10 µM (inactive); to `CCC(CC)c1nnc(NC(=O)c2c(C)nn(Cc3ccccc3Cl)c2C)s1`, > 10 µM (inactive).
To `CCOC(=O)Cc1cc(-c2ccc(O)cc2)nc2ccc3ccccc3c12` belongs > 10 µM (inactive); to `C/C=C/Cn1c(SCCCc2ccccc2)nc2c1c(=O)[nH]c(=O)n2C`, > 10 µM (inactive).
For `COc1ccc(OCc2cccc(C(=O)Nn3cc([N+](=O)[O-])cn3)c2)cc1`, the IC50 was 0.33 µM.
Consider `O=C(NC1CCCCC1)C(c1ccc(F)cc1)N(Cc1ccccc1)C(=O)CN1C(=O)c2ccccc2S1(=O)=O` (centres undefined), for which the IC50 result is “inactive”.
Consider `CCCCCCCCCS(=O)(=O)N/N=C/c1cccc([N+](=O)[O-])c1`, for which the IC50 result is “inactive”.
Under `C[C@H](NC(=O)c1[nH]cnc1C(=O)Nc1ccc(CNC(=O)OC(C)(C)C)cc1)C(=O)OC(C)(C)C` stands “inactive”; under `CC(C)=CCCC1(C)C=Cc2c(c(C)cc3c2[nH]c2cc(O)ccc23)O1` (centres undefined), “inactive”; under `Cc1cc(C(=O)COC(=O)c2ccccc2O)c(C)n1Cc1cccs1`, < 0.16 µM (inactive).
As for `CCCNC(=O)c1nnsc1S(=O)(=O)c1ccc(Cl)cc1`, the IC50 is 0.87 µM.
Regarding `FC(F)(F)c1cccc(NC(=S)NC(c2ccccc2)c2ccccc2)c1`, the IC50 is > 10 µM (inactive).
In the case of `CCN1/C(=C/C(C)=C/c2sc3ccccc3[n+]2CC)Sc2ccccc21`, the IC50 is > 10 µM (inactive).
To `CCN1/C(=C/c2ccc3cc(C)ccc3[n+]2C)Sc2ccc3sccc3c21` belongs 2.28 µM.
With `CCOC(=O)c1nc(S(C)(=O)=O)ncc1Cl`, the IC50 result was “inactive”.

Source of the values: PubChem BioAssay AID504313 (Emory University Molecular Libraries Screening Center, 2011).
